Assay results published in patent publication US20060122260A1, “Intermediates for aromatic polyketides as selective anticancer and antiviral agents” (priority 2002, published 2006).
Values after ≈ are worked out from the molar mass of the structure shown. “Also recorded” adds a separate entry of the source.

What was measured:
human topoisomerase I = molecular target: T1, human topoisomerase I (Homo sapiens, UniProt P11387); assay: Topoisomerase I drug screening kit; type: biochemical
T1 construct: purchased TopoGEN, Inc, Columbus, Ohio
T1 sequence (P11387 1-765): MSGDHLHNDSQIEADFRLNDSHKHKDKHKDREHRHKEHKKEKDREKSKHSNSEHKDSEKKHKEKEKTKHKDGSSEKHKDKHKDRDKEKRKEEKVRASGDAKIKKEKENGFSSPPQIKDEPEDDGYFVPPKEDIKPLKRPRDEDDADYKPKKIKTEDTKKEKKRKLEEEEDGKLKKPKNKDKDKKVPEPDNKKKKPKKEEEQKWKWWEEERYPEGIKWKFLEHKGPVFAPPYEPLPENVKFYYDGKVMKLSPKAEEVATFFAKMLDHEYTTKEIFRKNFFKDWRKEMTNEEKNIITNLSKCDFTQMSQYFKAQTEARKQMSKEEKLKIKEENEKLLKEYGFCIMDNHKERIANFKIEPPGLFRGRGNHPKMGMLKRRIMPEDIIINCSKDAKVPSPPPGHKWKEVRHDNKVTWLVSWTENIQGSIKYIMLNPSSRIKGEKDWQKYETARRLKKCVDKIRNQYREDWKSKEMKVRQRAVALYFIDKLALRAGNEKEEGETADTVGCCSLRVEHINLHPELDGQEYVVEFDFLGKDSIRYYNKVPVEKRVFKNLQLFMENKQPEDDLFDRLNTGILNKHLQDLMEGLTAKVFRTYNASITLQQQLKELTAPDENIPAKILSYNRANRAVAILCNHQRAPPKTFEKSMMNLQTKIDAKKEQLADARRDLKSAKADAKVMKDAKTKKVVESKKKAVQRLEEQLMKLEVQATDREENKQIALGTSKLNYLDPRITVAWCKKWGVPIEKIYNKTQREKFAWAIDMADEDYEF
Protocol: (§1) In order to understand the mechanism of anticancer activity, the inhibition of topoisomerases by S2502 was studied. The topoisomerase assays were done using Topoisomerase I and II drug screening kits with human topoisomerase I and II (p170 form) enzymes, respectively, according to the manufacturer's (TopoGEN, Inc, Columbus, Ohio) instructions. […] Minimal inhibitory concentrations were 25 μM against Topoisomerase 1 and 50 μM against Topoisomerase II.

MES-SA = assay: Typical cytotoxicity screen, MES-SA
[1] = molecular target: T2, human topoisomerase II (p170 form) (Homo sapiens, UniProt P11388); assay: Topoisomerase II drug screening kit; type: biochemical
T2 construct: purchased TopoGEN, Inc, Columbus, Ohio
Protocol: as §1

[2] = system: Canine parvovirus type 2 (CPV-d); assay: Parvovirus infectivity screening (animal virus model); type: cell-based; details: for antiviral activity against parvovirus (inhibition of infection of cells): drug added simultaneously with CPV, 24 h p.i.
adenovirus = assay: Activity testing in human virus models: adenovirus; type: cell-based; details: for activity against virus: adenovirus, concentrations tested 1 μM and 100 μM; for inhibition at 1 µM / inhibition at 100 µM: unidentified adenovirus, Adeno
Protocol: (§2) The results obtained from the parvovirus model encouraged us to carry out the bioactivity tests using human viruses as targets. Selected RNA- and DNA-viruses were tested; herpes simplex (HSV), adenovirus, influenza B, RS virus, cytomegalovirus (CMV), and CBV5 virus. […] The concentrations tested were 1 μM and 100 μM. The cytotoxic effect was not found using 1 μM of S2502 or S2507. Instead, 100 μM of S2502 was toxic to the cells used for CBV5 and HSV infection, and 100 μM of S2507 was toxic to the cells used for HSV infection.
(§3) S2507 and S2502 were further tested in human virus models: herpes simplex (HSV), adenovirus, influenza B, RS virus, cytomegalovirus and CBV5 virus. […] The compounds were active when administered simultaneously or before an infection (prophylactic) and half an hour after the infection. […] However, in HSV 100 μM concentration was toxic.

[3] = system: melanoma cell lines (MAL-ME-3M, M14, SK-MEL-5); assay: NCI 60-cell line panel, melanoma cell lines; type: cell-based, human; details: some melanoma cell lines
Source text: National Cancer Institute (NCI) tested both of the compounds in their 60-cell line panel (copy of their report available). NCI uses a 48-hour continuous drug exposure protocol. Cell viability and growth are estimated using a sulforhodamine B (SRB) protein assay. The screen is described on the web site: http://dtp.nci.nih.gov. […] However, a mean value of ED50 is at micro molar range against some melanoma cell lines (MAL-ME-3M, M14, SK-MEL-5).

influenza B = assay: Activity testing in human virus models: influenza B; type: cell-based; details: for inhibition at 1 µM / inhibition at 100 µM: Influenza B virus, Influenza B; for activity against virus: influenza B, concentrations tested 1 μM and 100 μM
CBV5 virus = assay: Activity testing in human virus models: CBV5; type: cell-based; details: for inhibition at 1 µM: CBV5, 1 μM; for activity against virus: CBV5 virus, concentrations tested 1 μM and 100 μM
Protocol: as §2, §3

[4] = system: cells used for CBV5 infection; assay: Toxicity to cells used for CBV5 infection; type: cell-based; details: 100 μM
Protocol: as §2

herpes simplex (HSV) = assay: Activity testing in human virus models: HSV; type: cell-based, herpes simplex virus; details: for activity against virus: HSV, concentrations tested 1 μM and 100 μM; for inhibition % 100 μM / inhibition at 1 µM: Herpes (HSV); for inhibition at 1 µM: Homo sapiens
Protocol: as §2, §3

uninfected cells = assay: Cytotoxicity in the parvovirus model; details: for effect on uninfected cells: parvovirus model
[5] = system: cells used for HSV infection; assay: Toxicity to cells used for HSV infection; type: cell-based; details: 100 μM
Protocol: as §2, §3

[6] = system: control cultivations without virus; assay: Cytotoxic effect on cells in the human virus tests (control cultivations without virus); details: for cytotoxic effect: 1 μM; for tolerance of control cultivations without virus: utilized drug concentrations (100 and 1 μM)
Stability = type: physicochemical; details: for stability in purification process and bioassays: typical conditions used in the purification process and in bioassays
Source text: It is the methyl ester of the S2507 acid.

cytomegalovirus (CMV) = assay: Activity testing in human virus models: cytomegalovirus; type: cell-based; details: for activity against virus: CMV, concentrations tested 1 μM and 100 μM; for inhibition at 1 µM / inhibition at 100 µM: Human betaherpesvirus 5, Cytomegalo
Protocol: as §2, §3

RS virus = assay: Activity testing in human virus models: RS virus; type: cell-based; details: for activity against virus: RS virus, concentrations tested 1 μM and 100 μM; for inhibition at 1 µM / inhibition at 100 µM: human respiratory syncytial virus, RSV
Protocol: as §2, §3

MES-SA/Dx5 = assay: Typical cytotoxicity screen, MES-SA/Dx5
pKa = type: physicochemical; details: comparable to acetic acid
mice = assay: In vivo toxicity, preliminary dose range finding study; details: single i.p. 100, 50, 25, 12.5 and 6.25 mg/kg, two weeks
Protocol: The drug was injected once i.p. at doses 100, 50, 25, 12.5 and 6.25 mg/kg to two mice at each dose level. The mice were observed daily and weighed every 3 to 5 days for two weeks.

T2 sequence (P11388 whole entry): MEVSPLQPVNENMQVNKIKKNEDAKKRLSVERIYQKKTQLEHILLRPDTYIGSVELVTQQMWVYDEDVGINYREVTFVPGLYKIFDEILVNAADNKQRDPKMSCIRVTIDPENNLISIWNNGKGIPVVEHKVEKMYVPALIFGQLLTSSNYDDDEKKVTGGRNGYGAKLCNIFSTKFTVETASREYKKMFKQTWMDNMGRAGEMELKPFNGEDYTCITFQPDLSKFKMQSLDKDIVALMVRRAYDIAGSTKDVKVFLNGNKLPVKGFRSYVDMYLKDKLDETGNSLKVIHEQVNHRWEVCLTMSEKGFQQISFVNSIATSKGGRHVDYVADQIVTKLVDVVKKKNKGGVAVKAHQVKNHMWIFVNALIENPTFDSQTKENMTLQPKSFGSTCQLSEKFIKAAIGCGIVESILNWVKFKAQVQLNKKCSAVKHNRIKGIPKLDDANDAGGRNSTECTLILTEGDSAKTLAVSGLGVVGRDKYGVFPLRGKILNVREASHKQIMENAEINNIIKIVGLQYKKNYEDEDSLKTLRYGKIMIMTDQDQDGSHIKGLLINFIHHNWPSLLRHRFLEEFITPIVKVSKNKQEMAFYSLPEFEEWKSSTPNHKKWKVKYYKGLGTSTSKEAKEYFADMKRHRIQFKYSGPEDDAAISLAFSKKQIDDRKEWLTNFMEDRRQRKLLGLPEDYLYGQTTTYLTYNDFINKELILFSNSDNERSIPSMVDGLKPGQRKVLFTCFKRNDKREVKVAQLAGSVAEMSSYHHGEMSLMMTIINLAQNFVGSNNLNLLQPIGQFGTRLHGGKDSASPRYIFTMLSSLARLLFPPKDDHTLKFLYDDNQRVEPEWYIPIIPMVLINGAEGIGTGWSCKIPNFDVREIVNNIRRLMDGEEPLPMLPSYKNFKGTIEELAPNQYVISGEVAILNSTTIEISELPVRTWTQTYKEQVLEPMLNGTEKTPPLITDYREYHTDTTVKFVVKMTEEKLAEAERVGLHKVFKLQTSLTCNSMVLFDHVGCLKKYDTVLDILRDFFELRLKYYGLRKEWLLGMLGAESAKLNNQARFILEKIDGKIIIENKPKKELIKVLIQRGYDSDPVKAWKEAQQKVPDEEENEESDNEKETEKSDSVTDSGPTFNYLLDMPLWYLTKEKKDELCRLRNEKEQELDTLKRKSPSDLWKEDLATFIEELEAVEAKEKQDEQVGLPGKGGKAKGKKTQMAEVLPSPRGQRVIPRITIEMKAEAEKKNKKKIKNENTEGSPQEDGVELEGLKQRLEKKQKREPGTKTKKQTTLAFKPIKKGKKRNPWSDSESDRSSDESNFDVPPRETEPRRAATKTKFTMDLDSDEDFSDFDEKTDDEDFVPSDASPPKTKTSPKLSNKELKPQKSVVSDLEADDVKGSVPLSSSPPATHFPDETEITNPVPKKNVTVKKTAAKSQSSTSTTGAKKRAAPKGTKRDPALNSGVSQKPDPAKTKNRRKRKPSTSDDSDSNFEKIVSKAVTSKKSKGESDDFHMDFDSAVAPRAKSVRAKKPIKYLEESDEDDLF

Structure (SMILES): COC(=O)CC1Cc2cc3cccc(O)c3c3c2C(=C/C(=C/C(C)=O)O3)O1 (stereo not drawn) [S2502]
- Minimal inhibitory concentration (human topoisomerase I): 25 µM (≈ 9.16 µg/mL)
- anticancer activity (cytotoxicity screen) (MES-SA): fail to show anticancer activity
- Minimal inhibitory concentration [1]: 50 µM (≈ 18.3 µg/mL)
- antiviral activity against parvovirus (inhibition of infection of cells) [2]: remarkable antiviral activity; also recorded: partially inhibit the infection
- activity against virus (adenovirus): active
- inhibition at 1 µM (adenovirus): 90%
- inhibition at 100 µM (adenovirus): 100%
- activity against melanoma cell lines [3]: active against some melanoma cell lines
- inhibition at 1 µM (influenza B): 100%
- inhibition at 100 µM (influenza B): 100%
- activity against virus (influenza B): active
- inhibition at 1 µM (CBV5 virus): 100%
- inhibition % 100 μM (CBV5 virus; CBV5, 100 μM): toxic
- activity against virus (CBV5 virus): active
- toxicity to cells [4]: toxic
- solubility to water at pH 7: not soluble
- activity against virus (herpes simplex (HSV)): active
- inhibition % 100 μM (herpes simplex (HSV)): toxic
- inhibition at 1 µM (herpes simplex (HSV)): 100%
- effect on uninfected cells (uninfected cells): without disturbing the uninfected cells
- toxicity to cells [5]: toxic
- cytotoxic effect [6]: not found
- tolerance of control cultivations without virus [6]: tolerated well
- stability under normal laboratory conditions (Stability): stable and non-reactive
- stability in purification process and bioassays (Stability): stable
- activity against virus (cytomegalovirus (CMV)): active
- inhibition at 1 µM (cytomegalovirus (CMV)): 100%
- inhibition at 100 µM (cytomegalovirus (CMV)): 100%
- activity against virus (RS virus): active
- inhibition at 1 µM (RS virus): 100%
- inhibition at 100 µM (RS virus): 100%
- anticancer activity (cytotoxicity screen) (MES-SA/Dx5): fail to show anticancer activity

Structure (SMILES): CC(=O)/C=C1/C=C2OC(CC(=O)O)Cc3cc4cccc(O)c4c(c32)O1 (stereo not drawn) [S2507]
- anticancer activity (cytotoxicity screen) (MES-SA): fail to show anticancer activity
- effect on parvovirus over concentration range ([2]; 5 nM to 500 nM): dose-activity correlation
- antiviral activity against parvovirus (inhibition of infection of cells) [2]: remarkable antiviral activity; also recorded: partially inhibit the infection
- activity against virus (adenovirus): active
- inhibition at 1 µM (adenovirus): 90%
- inhibition at 100 µM (adenovirus): 100%
- activity against melanoma cell lines [3]: active against some melanoma cell lines
- inhibition at 1 µM (influenza B): 100%
- inhibition at 100 µM (influenza B): 100%
- activity against virus (influenza B): active
- inhibition at 1 µM (CBV5 virus): 100%
- inhibition at 100 µM (CBV5 virus; CBV5, 100 μM): 100%
- activity against virus (CBV5 virus): active
- solubility to water at pH 7: slightly soluble
- activity against virus (herpes simplex (HSV)): active
- inhibition % 100 μM (herpes simplex (HSV)): toxic
- inhibition at 1 µM (herpes simplex (HSV)): 100%
- pKa (pKa): ~4.6
- effect on the weight of the mice (mice): no effect
- outer signs of general illness (mice): no outer signs of general illness were noticed
- cytotoxic properties (uninfected cells; highest concentration studied, 500 nM): did not exhibit cytotoxic properties
- effect on uninfected cells (uninfected cells): without disturbing the uninfected cells
- toxicity to cells [5]: toxic
- cytotoxic effect [6]: not found
- tolerance of control cultivations without virus [6]: tolerated well
- stability under normal laboratory conditions (Stability): stable and non-reactive
- stability in purification process and bioassays (Stability): stable
- activity against virus (cytomegalovirus (CMV)): only S2502 was active against CMV
- inhibition at 1 µM (cytomegalovirus (CMV)): 0%
- inhibition at 100 µM (cytomegalovirus (CMV)): 0%
- activity against virus (RS virus): active
- inhibition at 1 µM (RS virus): 100%
- inhibition at 100 µM (RS virus): 100%
- anticancer activity (cytotoxicity screen) (MES-SA/Dx5): fail to show anticancer activity
